What was measured:
[1] = system: pY705-STAT3 in Peripheral Blood Mononuclear Cells (PBMC); experiment: MSD-pSTAT-PBMC Assay (pSTAT3, IL-6 stimulated); format: cell-based, Human; conditions: compound 3 hrs, then 10 ng/mL IL-6 for 10 min
Outline: (§1)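 Phospho-STAT readout used MSD electrochemiluminescence with total STAT3 or STAT6 capture in lysates of cryopreserved human PBMCs. Cells had 3 h compound exposure before a 10 min cytokine pulse: IL-6 10 ng/mL for pSTAT3, IL-4 1 ng/mL for pSTAT6. IC50 came from background-subtracted, DMSO-normalised signal, with categories A≤100 nM up to D>3 μM.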

[2] = system: pY641-STAT6 in Peripheral Blood Mononuclear Cells (PBMC); experiment: MSD-pSTAT-PBMC Assay (pSTAT6, IL-4 stimulated); format: cell-based, Human; conditions: compound 3 hrs, then 1 ng/mL IL-4 for 10 min
Outline: as §1

Structure (SMILES) | IC50 ([1]; Homo sapiens) [nM] | IC50 ([2]; Homo sapiens) [nM] | IC50 [1] [nM] | IC50 [2] [nM]
CCCC(=O)SCCOP(=O)(OCCSC(=O)CCC)C(F)(F)c1ccc2ccc(C(=O)N[C@H]3CN(CC(F)F)CC[C@H]4CC[C@@H](C(=O)N(C)C5CCN(S(C)(=O)=O)CC5)N4C3=O)cc2c1 [Compound 347, S,S′-(((((7-(((5S,8S,10aR)-3-(2,2-difluoroethyl)-8-(methyl(1-(methylsulfonyl)piperidin-4-yl)carbamoyl)-6-oxodeca hydropyrrolo[1,2-a][1,5]diazocin-5-yl)carbamoyl)naphthalen-2-yl)difluoromethyl)phosphoryl)bis(oxy))bis(ethane-2,1-diyl))dibutanethioate] | 100 to 1000 | 100 to 1000 |  | 
CNC(=O)[C@@H]1CC[C@@H]2CCN(C(=O)c3n[nH]c4ccc(C)cc34)C[C@H](NC(=O)c3ccc4ccc(C(F)(F)P(=O)(OCOC(=O)OC(C)C)OCOC(=O)OC(C)C)cc4c3)C(=O)N21 [Compound 328, (((difluoro(7-(((5S,8S,10aR)-3-(5-methyl-1H-indazole-3-carbonyl)-8-(methylcarbamoyl)-6-oxodecahydro-pyrrolo[1,2-a][1,5]diazocin-5-yl)carbamoyl)naphthalen-2-yl)methyl)phosphoryl)bis(oxy))bis(methylene) diisopropylbis(carbonate)] | > 3000 | 100 to 1000 |  | 
CCCOC(=O)OC(C)OP(=O)(OC(C)OC(=O)OCCC)C(F)(F)c1ccc2sc(C(=O)N[C@H]3CN(C(C)=O)CC[C@H]4CC[C@@H](C(=O)N(C)c5ccccc5)N4C3=O)cc2c1 (stereo partly drawn) [Compound 293, ((((2-(((5S,8S, 10aR)-3-acetyl-8-(methyl (phenyl)carbamoyl)-6-oxodecahydro-pyrrolo[1,2-a][1,5]diazocin-5-yl)carbamoyl)benzo[b]thiophen-5-yl)difluoro-methyl)phos-phoryl)bis(oxy)) bis(ethane-1,1-diyl) dipropyl bis(carbonate)] | > 3000 | > 3000 |  | 
CN(CC(C)(C)C#N)C(=O)[C@@H]1CC[C@@H]2CCN(CC(F)F)C[C@H](NC(=O)c3cc4cc(C(F)(F)P(=O)(OCOC(=O)C(C)(C)C)OCOC(=O)C(C)(C)C)ccc4s3)C(=O)N21 [Compound 352, ((((2-(((5S,8S,10aR)-8-((2-cyano-2-methylpropyl)(methyl)carbamoyl)-3-(2,2-difluoroethyl)-6-oxodecahydropyrrolo[1,2-a][1,5]diazocin-5-yl)carbamoyl)benzo[b]thiophen-5-yl)difluoromethyl)phosphoryl)bis (oxy))bis(methylene) bis(2,2-dimethylpropanoate)] | ≤ 100 | ≤ 100 |  | 
CC(C)(C)C(=O)OCOP(=O)(OCOC(=O)C(C)(C)C)C(F)(F)c1ccc2sc(C(=O)N[C@H]3CN(CC(F)F)CC[C@H]4CC[C@@H](C(=O)N5CC(C(=O)N6CCOCC6)C5)N4C3=O)cc2c1 [Compound 351, ((((2-(((5S,8S,10aR)-3-(2,2-difluoroethyl)-8-(3-(morpholine-4-carbonyl)azetidine-1-carbonyl)-6-oxodecahydropyrrolo[1,2-a][1,5]diazocin-5-yl)carbamoyl)benzo[b]thiophen-5-yl)difluoromethyl)phosphoryl)bis (oxy))bis(methylene) bis(2,2-dimethylpropanoate)] |  |  | ≤ 100 | 1000 to 3000
CC(=O)N1CC[C@H]2CC[C@@H](C(=O)N(C)c3ccc(-c4ccccc4)cc3)N2C(=O)[C@@H](NC(=O)c2cc3cc(C(F)(F)P(=O)(OCOC(=O)C(C)(C)C)OCOC(=O)C(C)(C)C)ccc3s2)C1 [Compound 310, ((((2-(((5S, 8S,10aR)-8-([1,1′-biphenyl]-4-yl(methyl)carbamoyl)-3-acetyl-6-oxodecahydro-pyrrolo[1,2-a][1,5]diazocin-5-yl)carbamoyl)benzo[b]thiophen-5-yl)difluoro-methyl)phos-phoryl)bis(oxy)) bis(methylene) bis(2,2-dimethylpro-panoate)] | 100 to 1000 | 100 to 1000 |  | 
CC(=O)N1CC[C@H]2CC[C@@H](C(=O)N(C)c3ccccc3)N2C(=O)[C@@H](NC(=O)c2cc3cc(C(F)(F)P(=O)(OCCSC(=O)C(C)(C)C)Oc4ccccc4)ccc3s2)C1 (stereo partly drawn) [Compound 289, S-(2-((((2-(((5S,8S, 10aR)-3-acetyl-8-(methyl (phenyl)carbamoyl)-6-oxodecahydro-pyrrolo[1,2-a][1,5]diazocin-5-yl)carbamoyl)benzo[b]thiophen-5-yl)difluoro-methyl) (phenoxy)phosphoryl)oxy)ethyl)2,2-dimethylpro-panethioate] | > 3000 | > 3000 |  | 
CC(=O)N1CC[C@H]2CC[C@@H](C(=O)N3CCC[C@H]3Cc3ccccc3)N2C(=O)[C@@H](NC(=O)c2cc3cc(C(F)(F)P(=O)(OCOC(=O)C(C)(C)C)OCOC(=O)C(C)(C)C)ccc3s2)C1 [Compound 320, ((((2-(((5S,8S, 10aR)-3-acetyl-8-((S)-2-benzyl-pyrrolidine-1-carbonyl)-6-oxodecahydro-pyrrolo[1,2-a][1,5]diazocin-5-yl)carbamoyl)benzo[b]thiophen-5-yl)difluoro-methyl)phos-phoryl)bis(oxy)) bis(methylene) bis(2,2-dimethylpro-panoate)] | 100 to 1000 | ≤ 100 |  | 
CC(=O)N1CC[C@H]2CC[C@@H](C(=O)N3C[C@H](c4ccccc4)[C@@H](C#N)C3)N2C(=O)[C@@H](NC(=O)c2ccc3ccc(C(F)(F)P(=O)(OCOC(=O)C(C)(C)C)OCOC(=O)C(C)(C)C)cc3c2)C1 (mixture of isomers) [Compound 323, ((((7-(((5S,8S, 10aR)-3-acetyl-8-((rel- trans)-3-cyano-4-phenyl-pyrrolidine-1-carbonyl)-6-oxodecahydro-pyrrolo[1,2-a][1,5]diazocin-5-yl)carbamoyl)naphthalen-2-yl)difluoro-methyl)phos-phoryl)bis(oxy)) bis(methylene) bis(2,2-dimethylpro-panoate)] | 1000 to 3000 | ≤ 100 |  | 
CC(=O)N1CC[C@H]2CC[C@@H](C(=O)N(C)c3ccccc3)N2C(=O)[C@@H](NC(=O)c2ccc3ccc(C(F)(F)P(=O)(OCOC(=O)C(C)(C)C)OCOC(=O)C(C)(C)C)cc3c2)C1 [Compound 321, ((((7-(((5S,8S, 10aR)-3-acetyl-8-(methyl (phenyl)carbamoyl)-6-oxodecahydro-pyrrolo[1,2-a][1,5]diazocin-5-yl)carbamoyl)naphthalen-2-yl)difluoro-methyl)phos-phoryl)bis(oxy)) bis(methylene) bis(2,2-dimethylpro-panoate)] | 100 to 1000 | ≤ 100 |  | 
CCN1CC[C@H]2CC[C@@H](C(=O)N3C[C@@H](C#N)[C@H](c4ccccc4)C3)N2C(=O)[C@@H](NC(=O)c2cc3cc(C(F)(F)P(=O)(OCOC(=O)C(C)(C)C)OCOC(=O)C(C)(C)C)ccc3s2)C1 (single isomer, unassigned) [Compound 281, ((((2-(((5S,8S, 10aR)-8-((3S,4R or 3R,4S)-3-cyano-4-phenyl-pyrrolidine-1-carbonyl)-3-ethyl-6-oxodecahydro-pyrrolo[1,2-a][1,5]diazocin-5-yl)carbamoyl)benzo[b]thiophen-5-yl)difluoro-methyl)phos-phoryl)bis(oxy)) bis(methylene) bis(2,2-dimethyl-propanoate)] | ≤ 100 | ≤ 100 |  | 
CC(=O)N1CC[C@H]2CC[C@@H](C(=O)N(C)c3ccccc3)N2C(=O)[C@@H](NC(=O)c2cc3cc(C(F)(F)P(=O)(N[C@H](C)C(=O)OC(C)C)Oc4ccccc4)ccc3s2)C1 (stereo partly drawn) [Compound 326, isopropyl (((2-(((5S,8S, 10aR)-3-acetyl-8-(methyl (phenyl)carbamoyl)-6-oxodecahydro-pyrrolo[1,2-a][1,5]diazocin-5-yl)carbamoyl)benzo[b]thiophen-5-yl)difluoro-methyl) (phenoxy)phosphoryl)-D-alaninate] | > 3000 | > 3000 |  | 

Reference: patent US20250179103A1, “6-OXODECAHYDROPYRROLO[1,2-A][1,5]DIAZOCINE AND 6-OXODECAHYDRO-4H-PYRROLO[2,1-D][1,5]THIAZOCINE DERIVATIVES AS STAT3 AND STAT6 MODULATORS FOR THE TREATMENT OF CANCER AND INFLAMMATORY CONDITIONS” (Recludix Pharma, Inc., priority 2022, published 2025)
